Data set [1] relates to HT-1080/DR4 doxorubicin selected MDR (MRP/LRP phenotype) fibrosarcoma cell line. The experiment in a line: Cell growth inhibition, SRB assay, HT-1080-DR4. Type of data set: cell-based, human. The following applies: for Resistance ratio (IC50 resistant cell line/IC50 parental line): MRP/LRP expressing HT1080/DR4 vs HT-1080; for IC50: 72-96 h, read-out: IC50 nM (±S.E.) HT-1080-DR4. For orientation: Sulforhodamine B stains cellular protein and so reports cell mass.
Description: (§1) Cell lines were propagated as monolayers in RPMI-1640 containing 5% FCS, 5% NuSerum IV, 20 mM HEPES, 2 mM L-glutamine at 37° C. in a 5% CO2 humidified atmosphere.
(§2) Paclitaxel was solubilized in 100% DMSO. TX-001 and 002 were solubilized in sterile H2O acidified with 10% 1 N HCl. For the first experiment, 4.0 mM stocks of TX-001 and 002 were prepared. Solutions of TX-001 and TX-002 contained clear needle-like and cast-like precipitates and were fairly viscous (Experiment 1). For the second experiment (Experiment 2), less concentrated stock solutions (0.4 mM) of each compound were prepared in sterile H2O acidified with 10% 1 N HCl. The same type of precipitates were noted, however neither solution was viscous. All compounds were further diluted in RPMI-1640 containing 10 mM HEPES.
Assessment of cell growth inhibition was determined in 96 well microtiter plates according to the method of Skehan et al., “New Colorimetric Cytotoxicity Assay for Anticancer-Drug Screening, Articles 82(13):1107-1112 (1990). Briefly, cells were plated with 400-1800 cells/well in 96 well plates and incubated at 37° C. 15-18 hr prior to drug addition to allow for cell attachment. Each cell line was exposed to 12 concentrations of compound (a 6 log range), 5 replicate data points per compound concentration. […] Assays were terminated with 100 μl of ice-cold 50% TCA. After 1 hr at 4° C., plates were washed 5 times with tap water to remove TCA, low-molecular-weight metabolites and serum proteins. 50 μl of 0.4% sulforhodamine B (SRB) was added to each well. Following a five minute incubation at room temperature, plates were rinsed 5 times with 0.1% acetic acid and air dried. Bound dye was solubilized with 10 mM Tris Base (pH 10.5) for 5 min on a gyratory shaker. Optical density was measured at 570 nm.
Data were fit with the Sigmoid-Emax concentration-effect model (N. H. G. Holford and L. B. Scheiner, “Understanding the dose-effect relationship: Clinical applications of pharmacokinetic-pharmacodynamic models,” Clin. Pharmacokin. 6:429-453 (1981)) with nonlinear regression, weighted by the reciprocal of the square of the predicted response.

The subject of data set [2] is LCC6-MDR1 Pgp transfected breast carcinoma cell line. The experiment in a line: Cell growth inhibition, SRB assay, LCC6-MDR. The following applies: LCC6-MDR1 variant line overexpressing Pgp vs LCC6-WT.
Description: as §1, §2
(§3) Assessment of cell growth inhibition was determined in 96 well microtiter plates according to the method of Skehan et al., “New Colorimetric Cytotoxicity Assay for Anticancer-Drug Screening, Articles 82(13):1107-1112 (1990). Briefly, cells were plated with 400-1800 cells/well in 96 well plates and incubated at 37° C. 15-18 hr prior to drug addition to allow for cell attachment. Each cell line was exposed to 12 concentrations of compound (a 6 log range), 5 replicate data points per compound concentration. […] Assays were terminated with 100 μl of ice-cold 50% TCA. […] Optical density was measured at 570 nm. […]
Another data set relates to tubulin. The following applies: cited from earlier work.
Data set [3] has as its system MDA435/LCC6-WT breast carcinoma cell line. In words: Cell growth inhibition, SRB assay, LCC6-WT. Type of data set: cell-based, human. The following applies: read-out: IC50 nM (±S.E.) LCC6-WT.
Description: as §1, §2
Assessment of cell growth inhibition was determined in 96 well microtiter plates according to the method of Skehan et al., “New Colorimetric Cytotoxicity Assay for Anticancer-Drug Screening, Articles 82(13):1107-1112 (1990). Briefly, cells were plated with 400-1800 cells/well in 96 well plates and incubated at 37° C. 15-18 hr prior to drug addition to allow for cell attachment. Each cell line was exposed to 12 concentrations of compound (a 6 log range), 5 replicate data points per compound concentration. […] Assays were terminated with 100 μl of ice-cold 50% TCA. After 1 hr at 4° C., plates were washed 5 times with tap water to remove TCA, low-molecular-weight metabolites and serum proteins. 50 μl of 0.4% sulforhodamine B (SRB) was added to each well. Following a five minute incubation at room temperature, plates were rinsed 5 times with 0.1% acetic acid and air dried. Bound dye was solubilized with 10 mM Tris Base (pH 10.5) for 5 min on a gyratory shaker. Optical density was measured at 570 nm. […]
In data set [4] the test system is HT-1080 fibrosarcoma cell line. In words: Cell growth inhibition, SRB assay, HT-1080. Type of data set: cell-based, human. The following applies: 72-96 h, read-out: IC50 nM (±S.E.) HT-1080.
Description: as §1, §2, §3
Data set [5] concerns A121 ovarian carcinoma cell line. The experiment in a line: Cell growth inhibition, sulforhodamine B (SRB) assay, A121. The following applies: 72-96 h, read-out: IC50 nM (±S.E.) A121. Type of data set: cell-based, human.
Description: as §1, §2, §3
A short description of data set [6]: Stability of trifluoroacetate product fraction solutions on storage. The following applies: preparative HPLC fraction solutions, initially 98.8% average purity; 8° C. for 16 days; analytical HPLC. Type of data set: physicochemical.
Data set [7] concerns paclitaxel-resistant cells. The following applies: cited from earlier work.
Where [8] appears, read: Experiment 1, TX-001/TX-002 from 4.0 mM stocks.
[9] abbreviates: Experiment 2, TX-001/TX-002 from 0.4 mM stocks.

Where two headings read alike, the source gives them in different places.

For the compound `CC(=O)O[C@H]1C(=O)[C@@]2(C)[C@H]([C@H](OC(=O)c3ccccc3)[C@]3(O)C[C@H](OC(=O)[C@H](O)[C@@H](NC(=O)c4ccccc4)c4ccccc4)C(C)=C1C3(C)C)[C@]1(OC(C)=O)CO[C@@H]1C[C@@H]2O` [Paclitaxel, reference compound], the “Resistance ratio (IC50 resistant cell line/IC50 parental line)” value in data set [1] was 1.1-1.4 fold; in data set [2] it was 65-92 fold.
With A-nor-paclitaxel, the “tubulin-assembly activity relative to paclitaxel” value with tubulin is “only three times less than that of paclitaxel”.
The term IC50 denotes the midpoint of a concentration-inhibition curve. For the compound “2′-Succinamidyl-PEG2-amine-paclitaxel Acetate [Compound 4]”, the IC50 in data set [3] (4.0 mM stock solutions stored at 4° C. for 7 days) is 2.7 ± 0.4 nM; in data set [3] (Experiment 1, TX-001/TX-002 from 4.0 mM stocks, 72-96 h) it was 4.9 ± 0.5 nM; in data set [3] (Experiment 2, TX-001/TX-002 from 0.4 mM stocks, 72-96 h), 13 ± 0.5 nM; in data set [4] (setting [8]) it was 4.5 ± 0.4 nM; in data set [4] (setting [9]), 19 ± 0.7 nM; in data set [5] (setting [8]), 13 ± 0.5 nM. The values for the IC50 in data set [5] (setting [9]), in data set [1] (setting [8]) and in data set [1] (setting [9]) were 37 ± 1.2 nM, 8.9 ± 0.4 nM and 36 ± 1.5 nM, respectively.
`CC(=O)O.CC(=O)OC1C(=O)C2(C)C(O)CC3OCC3(OC(C)=O)C2C(OC(=O)c2ccccc2)C2(O)CC(OC(=O)C(OC(=O)CCCC(=O)NCCOCCOCCN)C(NC(=O)c3ccccc3)c3ccccc3)C(C)=C1C2(C)C` (stereo not shown) [Compound 5, 2′-Glutaramidyl-PEG2-amine-paclitaxel acetate]: the “Resistance ratio (IC50 resistant cell line/IC50 parental line)” value in data set [1] is recorded as 1.1-1.5 fold; in data set [2] it was 47-60 fold.
Consider “2′-Succinamidyl-PEG2-amine-paclitaxel Trifluoroacetate [Compound 3]”, for which the “average purity after storage” value in data set [6] amounted to 97.4%.
Turning to `CC(=O)O[C@@]12CO[C@@H]1C[C@H](O)[C@@]1(C)C(=O)[C@H](O)C3=C(C)[C@@H](OC(=O)[C@H](O)[C@@H](NC(=O)OC(C)(C)C)c4ccccc4)C[C@@](O)([C@@H](OC(=O)c4ccccc4)[C@H]21)C3(C)C` [Docetaxel, docetaxel], the “activity relative to paclitaxel” value in data set [7] is “about five times as active as paclitaxel”.
